{
  "source": "ChEMBL document CHEMBL1201862",
  "about": "“PubChem BioAssay data set” (2004)",
  "type_in_all_cases": "functional",
  "key": {"[1]": {"target": "Eukaryotic translation initiation factor 4E (Mus musculus, UniProt P63073)", "sequence (P63073 whole entry)": "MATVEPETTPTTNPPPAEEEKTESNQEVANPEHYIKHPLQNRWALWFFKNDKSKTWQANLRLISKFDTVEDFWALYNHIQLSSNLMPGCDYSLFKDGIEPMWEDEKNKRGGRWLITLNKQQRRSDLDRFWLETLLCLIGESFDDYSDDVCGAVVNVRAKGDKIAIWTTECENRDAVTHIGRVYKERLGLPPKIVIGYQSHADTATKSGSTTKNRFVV", "experiment": "eIF4E–eIF4G protein interaction inhibitors, dose response, biochemical, TR-FRET (AID 855);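 note: potency for disrupting eIF4E binding to eIF4GI seen as loss of FRET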"}, "[2]": {"target": "T1, Tyrosine-protein phosphatase non-receptor type 7 (Homo sapiens, UniProt P35236)", "T1 sequence (P35236 whole entry)": "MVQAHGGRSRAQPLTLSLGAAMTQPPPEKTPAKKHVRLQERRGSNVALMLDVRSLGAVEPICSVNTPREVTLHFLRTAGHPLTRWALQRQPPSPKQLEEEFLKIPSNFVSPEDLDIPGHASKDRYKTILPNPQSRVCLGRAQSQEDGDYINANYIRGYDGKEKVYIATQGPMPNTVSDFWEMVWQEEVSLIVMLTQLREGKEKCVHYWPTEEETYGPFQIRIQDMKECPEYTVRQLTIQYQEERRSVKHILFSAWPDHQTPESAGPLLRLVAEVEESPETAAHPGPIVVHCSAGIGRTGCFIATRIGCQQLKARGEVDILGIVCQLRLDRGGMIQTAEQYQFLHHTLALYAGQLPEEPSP"}, "[3]": {"target": "T2, Tyrosine-protein phosphatase non-receptor type 22 (Homo sapiens, UniProt Q9Y2R2)", "T2 sequence (Q9Y2R2 whole entry)": "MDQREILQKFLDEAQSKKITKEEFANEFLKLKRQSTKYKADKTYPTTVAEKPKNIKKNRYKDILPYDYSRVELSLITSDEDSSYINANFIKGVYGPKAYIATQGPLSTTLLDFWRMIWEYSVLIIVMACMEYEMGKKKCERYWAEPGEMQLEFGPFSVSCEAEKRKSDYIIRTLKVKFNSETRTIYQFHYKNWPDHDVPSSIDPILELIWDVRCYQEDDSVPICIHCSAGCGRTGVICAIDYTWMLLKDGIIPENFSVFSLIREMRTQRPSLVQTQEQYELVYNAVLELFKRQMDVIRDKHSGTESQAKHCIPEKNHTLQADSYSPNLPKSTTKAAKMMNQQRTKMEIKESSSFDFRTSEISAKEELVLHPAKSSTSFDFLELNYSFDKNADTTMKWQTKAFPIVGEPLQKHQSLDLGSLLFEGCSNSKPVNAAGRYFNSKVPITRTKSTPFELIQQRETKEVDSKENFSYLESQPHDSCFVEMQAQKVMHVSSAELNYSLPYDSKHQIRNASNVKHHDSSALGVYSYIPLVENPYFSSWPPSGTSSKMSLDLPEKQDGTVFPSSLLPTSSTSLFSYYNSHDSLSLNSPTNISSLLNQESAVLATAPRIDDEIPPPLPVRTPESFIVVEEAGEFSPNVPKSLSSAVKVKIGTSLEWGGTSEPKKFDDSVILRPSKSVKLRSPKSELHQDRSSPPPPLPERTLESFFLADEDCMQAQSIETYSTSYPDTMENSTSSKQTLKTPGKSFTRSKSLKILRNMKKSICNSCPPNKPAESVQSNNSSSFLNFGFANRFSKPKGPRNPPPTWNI"}, "[4]": {"target": "T2, Tyrosine-protein phosphatase non-receptor type 22", "remark": "listed apart in the source"}, "Leucine aminopeptidase": {"target": "T3, Leucine aminopeptidase (Plasmodium falciparum 3D7, UniProt Q8IL11)", "T3 sequence (Q8IL11 whole entry)": "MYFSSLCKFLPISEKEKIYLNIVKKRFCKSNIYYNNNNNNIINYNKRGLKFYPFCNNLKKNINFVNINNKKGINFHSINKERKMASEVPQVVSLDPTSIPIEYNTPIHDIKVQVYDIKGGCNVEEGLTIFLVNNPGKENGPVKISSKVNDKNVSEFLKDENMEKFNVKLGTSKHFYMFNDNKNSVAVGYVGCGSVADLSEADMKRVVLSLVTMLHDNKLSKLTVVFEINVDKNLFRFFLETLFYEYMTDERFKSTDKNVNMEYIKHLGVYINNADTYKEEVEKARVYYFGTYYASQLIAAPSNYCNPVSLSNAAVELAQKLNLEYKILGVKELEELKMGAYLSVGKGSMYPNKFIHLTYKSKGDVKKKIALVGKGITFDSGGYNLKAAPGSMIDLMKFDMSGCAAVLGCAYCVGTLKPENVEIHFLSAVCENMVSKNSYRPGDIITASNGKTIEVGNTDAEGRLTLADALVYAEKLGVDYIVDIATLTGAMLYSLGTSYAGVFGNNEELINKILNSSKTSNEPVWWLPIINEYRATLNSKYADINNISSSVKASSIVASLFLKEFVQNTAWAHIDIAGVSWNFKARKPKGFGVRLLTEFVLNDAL", "experiment": "P. falciparum M17LAP inhibitors, primary screen, biochemical, fluorogenic H-Leu-NHMec substrate, 1536-well (AID 1619)"}, "[5]": {"experiment": "HepG2 cell cytotoxicity, dose response, cytotoxicity control for non-replicating M. tuberculosis project (AID 489018)", "settings": "Mycobacterium tuberculosis"}, "[6]": {"experiment": "THP-1 cell cytotoxicity, dose response, cytotoxicity control for non-replicating M. tuberculosis project (AID 489025)"}, "[7]": {"target": "G-protein coupled receptor 55 (Homo sapiens, UniProt Q9Y2T6)", "sequence (Q9Y2T6 whole entry)": "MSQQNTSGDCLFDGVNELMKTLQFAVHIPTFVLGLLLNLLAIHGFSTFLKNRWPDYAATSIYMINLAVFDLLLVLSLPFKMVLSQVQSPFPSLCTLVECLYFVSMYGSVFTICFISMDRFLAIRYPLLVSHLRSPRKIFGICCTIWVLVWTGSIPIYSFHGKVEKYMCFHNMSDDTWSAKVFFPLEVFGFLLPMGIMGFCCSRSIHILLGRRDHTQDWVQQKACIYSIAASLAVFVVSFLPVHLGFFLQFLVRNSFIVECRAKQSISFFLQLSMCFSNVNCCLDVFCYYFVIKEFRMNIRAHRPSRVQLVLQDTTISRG", "experiment": "GPR55 antagonists blocking LPI-driven arrestin recruitment, primary screen, imaging, U2OS, beta-arrestin-GFP, LPI agonist (AID 2013);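 note: antagonist potency measured as reduced agonist-driven arrestin aggregation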"}, "[8]": {"target": "DNA dC->dU-editing enzyme APOBEC-3A (Homo sapiens, UniProt P31941)", "sequence (P31941 whole entry)": "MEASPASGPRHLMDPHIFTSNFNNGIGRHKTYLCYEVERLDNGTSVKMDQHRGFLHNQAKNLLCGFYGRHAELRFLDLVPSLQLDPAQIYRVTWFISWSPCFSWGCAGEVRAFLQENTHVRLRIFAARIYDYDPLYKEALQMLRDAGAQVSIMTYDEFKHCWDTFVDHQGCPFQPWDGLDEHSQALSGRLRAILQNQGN", "experiment": "Dose Response confirmation of small molecule APOBEC3A DNA Deaminase Inhibitors via a fluorescence-based single-stranded DNA deaminase assay. [Related pubchem assays (depositor defined):AID493011, AID493024]"}, "[9]": {"target": "DNA dC->dU-editing enzyme APOBEC-3G (Homo sapiens, UniProt Q9HC16)", "sequence (Q9HC16 whole entry)": "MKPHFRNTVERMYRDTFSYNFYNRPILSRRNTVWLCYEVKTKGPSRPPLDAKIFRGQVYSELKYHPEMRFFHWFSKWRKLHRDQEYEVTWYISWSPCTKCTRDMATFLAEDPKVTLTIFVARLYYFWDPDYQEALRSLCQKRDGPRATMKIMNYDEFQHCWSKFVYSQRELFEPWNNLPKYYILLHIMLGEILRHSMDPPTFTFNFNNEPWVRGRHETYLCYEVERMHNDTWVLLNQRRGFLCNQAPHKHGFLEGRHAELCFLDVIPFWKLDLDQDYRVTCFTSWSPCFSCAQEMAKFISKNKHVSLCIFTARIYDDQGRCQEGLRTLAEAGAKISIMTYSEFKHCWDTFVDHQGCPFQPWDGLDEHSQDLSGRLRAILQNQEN"}, "cells": {"experiment": "cells"}},
  "note": "Calls of active or inactive are those of the source.",
  "data": [
    {"smiles": "COc1ccc(CC(=O)Nc2ccc(-c3nnc(-c4ccccc4)o3)cc2)cc1OC", "values": [
      {"measurement": "IC50", "setting": "[1]", "value": "> 64 µM (inactive)"}
    ]},
    {"smiles": "O=C(O)C1CCCCC1C(=O)Nc1ccc(F)c(F)c1", "note": "(configuration not stated)", "values": [
      {"measurement": "IC50", "setting": "[2]", "value": "> 79.4 µM (inactive)"},
      {"measurement": "IC50", "setting": "[3]", "value": "> 79.4 µM (inactive)"},
      {"measurement": "IC50", "setting": "[4]", "value": "> 79.4 µM (inactive)"},
      {"measurement": "IC50", "setting": "Leucine aminopeptidase", "value": "37.8 µM (active)"}
    ]},
    {"smiles": "O=C(NNC1=C(C(=O)C(F)(F)F)CCC1)c1ccccc1Cl", "values": [
      {"measurement": "CC50", "setting": "[5]", "value": "> 20 µM (active)"},
      {"measurement": "CC50", "setting": "[6]", "value": "13.6 µM (active)"}
    ]},
    {"smiles": "CCCCCn1c(C(Cc2ccccc2)NC(C)=O)nc2ccccc21", "note": "(configuration not stated)", "values": [
      {"measurement": "IC50", "setting": "[7]", "value": "4.08 µM (active)"}
    ]},
    {"smiles": "O=C(CNC(=O)c1ccc(Cl)cc1)NCC(F)(F)F", "values": [
      {"measurement": "IC50", "setting": "[2]", "value": "> 79.4 µM (inactive)"},
      {"measurement": "IC50", "setting": "[3]", "value": "> 79.4 µM (inactive)"},
      {"measurement": "IC50", "setting": "[4]", "value": "> 79.4 µM (inactive)"}
    ]},
    {"smiles": "CCSc1nnc(NC(=O)C2CCCCC2C(=O)O)s1", "note": "(configuration not stated)", "values": [
      {"measurement": "IC50", "setting": "[2]", "value": "> 79.4 µM (inactive)"},
      {"measurement": "IC50", "setting": "[3]", "value": "> 79.4 µM (inactive)"},
      {"measurement": "IC50", "setting": "[4]", "value": "> 79.4 µM (inactive)"}
    ]},
    {"smiles": "Cc1n(CC(O)COCc2ccccc2)c2ccccc2[n+]1C", "note": "(configuration not stated)", "values": [
      {"measurement": "IC50", "setting": "[8]", "value": "2.82 µM (active)"},
      {"measurement": "IC50", "setting": "[9]", "value": "5.05 µM (active)"}
    ]},
    {"smiles": "O=C(CN1CCC(NC(=O)c2cccc(F)c2)CC1)Nc1ccc(Br)cc1", "values": [
      {"measurement": "IC50", "setting": "cells", "value": "47.8 µM (active)"}
    ]}
  ]
}
